Measurements from PubChem BioAssay AID2060888 (Molecular Pharmacology Branch, DTP, NCI, 2025).
pIC50: −log10 of the molar value.

Test system: 695427-040-R-J1-PDC complex spheroid viability
Assay: Anticancer human tumor 695427-040-R-J1-PDC patient-derived colon adenocarcinoma cell line growth inhibition [RAS]
Settings: for pIC50: curve of first compound; for viability, T/C: stronger effect = lower value
In short: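 Multi-cell-type spheroids: tumor cells plus HUVEC endothelial cells and mesenchymal stem cells. RAS-pathway inhibitors were combined with targeted agents, each dosed in half-log steps down from clinical Cmax, or from 10 microM when Cmax was unknown.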
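Note: viability read after seven days of drug exposure.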
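Throughout, for viability, T/C: 100% = DMSO vehicle control viability.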

## C=CC(=O)N1CCN(c2nc(OCC3CCCN3C)nc3c(F)c(-c4nc(N)cc(C)c4C(F)(F)F)c(Cl)cc23)C(C)C1 (centres undefined) + CCn1c(-c2cccnc2C(C)OC)c2c3cc(ccc31)N1CCOC(CC(NC(=O)C(C(C)C)N(C)C(=O)C3(F)CCN(C(=O)C#CC(C)(C)N(C)C)CC3)C(=O)N3CCCC(N3)C(=O)OCC(C)(C)C2)C1
Second compound 0.000949 µM
  pIC50: < 6.00
Second compound 0.003 µM
  pIC50: < 6.00
Second compound 0.00949 µM
  pIC50: < 6.00
Second compound 0.03 µM
  pIC50: < 6.00
Second compound 0.0949 µM
  pIC50: < 6.00
Second compound 0.3 µM
  pIC50: < 6.00
Second compound 0.000949 µM, first compound 0.00316 µM
  viability, T/C: 113%
Second compound 0.000949 µM, first compound 0.01 µM
  viability, T/C: 102%
Second compound 0.000949 µM, first compound 0.0316 µM
  viability, T/C: 76.5%
Second compound 0.000949 µM, first compound 0.1 µM
  viability, T/C: 75.5%
Second compound 0.000949 µM, first compound 0.316 µM
  viability, T/C: 95.3%
Second compound 0.000949 µM, first compound 1 µM
  viability, T/C: 93.1%
Second compound 0.003 µM, first compound 0.00316 µM
  viability, T/C: 109%
Second compound 0.003 µM, first compound 0.01 µM
  viability, T/C: 98.4%
Second compound 0.003 µM, first compound 0.0316 µM
  viability, T/C: 94%
Second compound 0.003 µM, first compound 0.1 µM
  viability, T/C: 77%
Second compound 0.003 µM, first compound 0.316 µM
  viability, T/C: 99.4%
Second compound 0.003 µM, first compound 1 µM
  viability, T/C: 106%
Second compound 0.00949 µM, first compound 0.00316 µM
  viability, T/C: 104%
Second compound 0.00949 µM, first compound 0.01 µM
  viability, T/C: 116%
Second compound 0.00949 µM, first compound 0.0316 µM
  viability, T/C: 85.1%
Second compound 0.00949 µM, first compound 0.1 µM
  viability, T/C: 80%
Second compound 0.00949 µM, first compound 0.316 µM
  viability, T/C: 105%
Second compound 0.00949 µM, first compound 1 µM
  viability, T/C: 95%
Second compound 0.03 µM, first compound 0.00316 µM
  viability, T/C: 97.1%
Second compound 0.03 µM, first compound 0.01 µM
  viability, T/C: 104%
Second compound 0.03 µM, first compound 0.0316 µM
  viability, T/C: 85.2%
Second compound 0.03 µM, first compound 0.1 µM
  viability, T/C: 75.9%
Second compound 0.03 µM, first compound 0.316 µM
  viability, T/C: 100%
Second compound 0.03 µM, first compound 1 µM
  viability, T/C: 108%
Second compound 0.0949 µM, first compound 0.00316 µM
  viability, T/C: 96.9%
Second compound 0.0949 µM, first compound 0.01 µM
  viability, T/C: 101%
Second compound 0.0949 µM, first compound 0.0316 µM
  viability, T/C: 107%
Second compound 0.0949 µM, first compound 0.1 µM
  viability, T/C: 84.4%
Second compound 0.0949 µM, first compound 0.316 µM
  viability, T/C: 102%
Second compound 0.0949 µM, first compound 1 µM
  viability, T/C: 107%
Second compound 0.3 µM, first compound 0.00316 µM
  viability, T/C: 84.2%
Second compound 0.3 µM, first compound 0.01 µM
  viability, T/C: 86.4%
Second compound 0.3 µM, first compound 0.0316 µM
  viability, T/C: 89.1%
Second compound 0.3 µM, first compound 0.1 µM
  viability, T/C: 88.8%
Second compound 0.3 µM, first compound 0.316 µM
  viability, T/C: 88.7%
Second compound 0.3 µM, first compound 1 µM
  viability, T/C: 78%

## CC1(C)CCC(Nc2ncc(C(F)(F)F)c(-c3c[nH]c4c(P(C)(C)=O)c(C#N)ccc34)n2)CN1 (centres undefined) + CCn1c(-c2cccnc2C(C)OC)c2c3cc(ccc31)N1CCOC(CC(NC(=O)C(C(C)C)N(C)C(=O)C3(F)CCN(C(=O)C#CC(C)(C)N(C)C)CC3)C(=O)N3CCCC(N3)C(=O)OCC(C)(C)C2)C1
Second compound 0.000949 µM
  pIC50: < 6.52
Second compound 0.003 µM
  pIC50: < 6.52
Second compound 0.00949 µM
  pIC50: < 6.52
Second compound 0.03 µM
  pIC50: < 6.52
Second compound 0.0949 µM
  pIC50: < 6.52
Second compound 0.3 µM
  pIC50: < 6.52
Second compound 0.000949 µM, first compound 0.000949 µM
  viability, T/C: 85%
Second compound 0.000949 µM, first compound 0.003 µM
  viability, T/C: 116%
Second compound 0.000949 µM, first compound 0.00949 µM
  viability, T/C: 95.5%
Second compound 0.000949 µM, first compound 0.03 µM
  viability, T/C: 100%
Second compound 0.000949 µM, first compound 0.0949 µM
  viability, T/C: 85.6%
Second compound 0.000949 µM, first compound 0.3 µM
  viability, T/C: 90.6%
Second compound 0.003 µM, first compound 0.000949 µM
  viability, T/C: 104%
Second compound 0.003 µM, first compound 0.003 µM
  viability, T/C: 105%
Second compound 0.003 µM, first compound 0.00949 µM
  viability, T/C: 81%
Second compound 0.003 µM, first compound 0.03 µM
  viability, T/C: 103%
Second compound 0.003 µM, first compound 0.0949 µM
  viability, T/C: 86.9%
Second compound 0.003 µM, first compound 0.3 µM
  viability, T/C: 55.1%
Second compound 0.00949 µM, first compound 0.000949 µM
  viability, T/C: 108%
Second compound 0.00949 µM, first compound 0.003 µM
  viability, T/C: 104%
Second compound 0.00949 µM, first compound 0.00949 µM
  viability, T/C: 98.3%
Second compound 0.00949 µM, first compound 0.03 µM
  viability, T/C: 113%
Second compound 0.00949 µM, first compound 0.0949 µM
  viability, T/C: 103%
Second compound 0.00949 µM, first compound 0.3 µM
  viability, T/C: 65.4%
Second compound 0.03 µM, first compound 0.000949 µM
  viability, T/C: 101%
Second compound 0.03 µM, first compound 0.003 µM
  viability, T/C: 80.8%
Second compound 0.03 µM, first compound 0.00949 µM
  viability, T/C: 89.9%
Second compound 0.03 µM, first compound 0.03 µM
  viability, T/C: 90.5%
Second compound 0.03 µM, first compound 0.0949 µM
  viability, T/C: 97.5%
Second compound 0.03 µM, first compound 0.3 µM
  viability, T/C: 90.1%
Second compound 0.0949 µM, first compound 0.000949 µM
  viability, T/C: 105%
Second compound 0.0949 µM, first compound 0.003 µM
  viability, T/C: 78.2%
Second compound 0.0949 µM, first compound 0.00949 µM
  viability, T/C: 107%
Second compound 0.0949 µM, first compound 0.03 µM
  viability, T/C: 98%
Second compound 0.0949 µM, first compound 0.0949 µM
  viability, T/C: 93.3%
Second compound 0.0949 µM, first compound 0.3 µM
  viability, T/C: 80.2%
Second compound 0.3 µM, first compound 0.000949 µM
  viability, T/C: 75.7%
Second compound 0.3 µM, first compound 0.003 µM
  viability, T/C: 93.8%
Second compound 0.3 µM, first compound 0.00949 µM
  viability, T/C: 84.3%
Second compound 0.3 µM, first compound 0.03 µM
  viability, T/C: 92.1%
Second compound 0.3 µM, first compound 0.0949 µM
  viability, T/C: 85.7%
Second compound 0.3 µM, first compound 0.3 µM
  viability, T/C: 78.1%
